Results taken from the RepoRT retention time repository.

Experiment: HILIC, Waters ACQUITY UPLC BEH Amide, 100 × 2.1 mm, 1.7 µm; A: water + 0.125% formic acid + 10 mM ammonium formate; B: 5% water + 95% acetonitrile + 0.125% formic acid + 10 mM ammonium formate; gradient (min/%B) 0/100 2/100 7.7/70 9.5/40 10.25/30 12.75/100 17/100
Conditions: stereoisomer not certain

## CC(Cc1ccccc1)N(C)Cc1ccccc1 (stereo unspecified) [Benzphetamine]
  LC retention time: 2.03 min

## CC(=O)OCc1ccccc1 [Benzylacetate]
  LC retention time: 8.71 min

## CC(C)CC(NC(=O)C(O)C(N)Cc1ccccc1)C(=O)O (stereo unspecified) [Bestatin]
  LC retention time: 5.98 min

## C[N+](C)(C)CC(=O)[O-] [Betaine]
  LC retention time: 7.24 min

## CC(C)NCC(O)COc1ccc(CCOCC2CC2)cc1 (stereo unspecified) [Betaxolol]
  LC retention time: 3.05 min

## CC(O)(CS(=O)(=O)c1ccc(F)cc1)C(=O)Nc1ccc(C#N)c(C(F)(F)F)c1 (stereo unspecified) [Bicalutamide]
  LC retention time: 0.99 min

## CNCCCCOc1ccccc1Cc1ccccc1 [Bifemelane]
  LC retention time: 2.46 min

## c1ccc(-c2ccc(C(c3ccccc3)n3ccnc3)cc2)cc1 (stereo unspecified) [Bifonazole]
  LC retention time: 1.19 min

## O=C1CC2(CCCC2)CC(=O)N1CCNCC1COc2ccccc2O1 (stereo unspecified) [Binospirone]
  LC retention time: 1.8 min

## O=C(O)CCCCC1SCC2NC(=O)NC21 (stereo unspecified) [Biotin]
  LC retention time: 2.85 min

## CC(C)NCC(O)COc1ccc(COCCOC(C)C)cc1 (stereo unspecified) [Bisoprolol]
  LC retention time: 3.47 min

## NC(=O)NC(N)=O [Biuret]
  LC retention time: 2.73 min

## O=C1CN=C(c2ccccn2)c2cc(Br)ccc2N1 [Bromazepam]
  LC retention time: 1.3 min

## COc1cc2c(cc1OC)C13CCN4CC5=CCOC6CC(=O)N2C1C6C5CC43 (stereo unspecified) [Brucine]
  LC retention time: 4.57 min

## COc1cc(OC)c(C(=O)CCCN2CCCC2)c(OC)c1 [Buflomedil]
  LC retention time: 2.34 min

## CC(NC(C)(C)C)C(=O)c1cccc(Cl)c1 (stereo unspecified) [Bupropion]
  LC retention time: 2.22 min

## CCCC(=O)O [Butanoic acid]
  LC retention time: 10.2 min

## CCCC(=O)NCC(=O)O [Butyrylglycine]
  LC retention time: 3.73 min

## NCCCCCN [Cadaverine]
  LC retention time: 8.99 min

## Cn1c(=O)c2c(ncn2C)n(C)c1=O [Caffeine]
  LC retention time: 1.21 min

## c1ccc2c(-c3nccs3)c[nH]c2c1 [Camalexin]
  LC retention time: 1.05 min

## NC(N)=NOCCC(N)C(=O)O (stereo unspecified) [Canavanine]
  LC retention time: 9.42 min

## COc1cc(CNC(=O)CCCCC=CC(C)C)ccc1O [Capsaicin]
  LC retention time: 1 min

## NC(=O)N1c2ccccc2C=Cc2ccccc21 [Carbamazepine]
  LC retention time: 1.21 min

## NC(CSCC(=O)O)C(=O)O (stereo unspecified) [Carbocysteine]
  LC retention time: 9.04 min

## CC(Cc1ccc(C(C)C(=O)O)cc1)C(=O)O (stereo unspecified) [Carboxyibuprofen]
  LC retention time: 1.11 min

## C[N+](C)(C)CC(O)CC(=O)[O-] (stereo unspecified) [Carnitine]
  LC retention time: 7.83 min

## NCCC(=O)NC(Cc1cnc[nH]1)C(=O)O (stereo unspecified) [Carnosine]
  LC retention time: 9.54 min

## COc1ccccc1OCCNCC(O)COc1cccc2[nH]c3ccccc3c12 (stereo unspecified) [Carvedilol]
  LC retention time: 3.17 min

## NC(C(=O)NC1C(=O)N2C(C(=O)O)=C(Cl)CSC12)c1ccccc1 (stereo unspecified) [Cefaclor]
  LC retention time: 5.61 min

## NC(C(=O)NC1C(=O)N2C(C(=O)O)=C(CSc3cn[nH]n3)CSC12)c1ccc(O)cc1 (stereo unspecified) [Cefatrizine]
  LC retention time: 7.98 min

## C=CC1=C(C(=O)O)N2C(=O)C(NC(=O)C(=NO)c3csc(N)n3)C2SC1 (stereo unspecified) [Cefdinir]
  LC retention time: 6.94 min

## C=CC1=C(C(=O)O)N2C(=O)C(NC(=O)C(=NOCC(=O)O)c3csc(N)n3)C2SC1 (stereo unspecified) [Cefixime]
  LC retention time: 7.79 min

## COCc1c(C(C)C)nc(C(C)C)c(C=CC(O)CC(O)CC(=O)O)c1-c1ccc(F)cc1 (stereo unspecified) [Cerivastatin]
  LC retention time: 1.18 min

## NCC1CCC(C(=O)Oc2ccc(CCC(=O)O)cc2)CC1 (stereo unspecified) [Cetraxate]
  LC retention time: 5.29 min

## CN=C1CN(O)C(c2ccccc2)=c2cc(Cl)ccc2=N1 [Chlordiazepoxide]
  LC retention time: 1.35 min

## O=C(C=Cc1ccc(O)c(O)c1)OC1CC(O)(C(=O)O)CC(O)C1O (stereo unspecified) [Chlorogenic acid]
  LC retention time: 6.68 min

## CN(C)CCC(c1ccc(Cl)cc1)c1ccccn1 (stereo unspecified) [Chlorpheniramine]
  LC retention time: 2.54 min

## C[N+](C)(C)CCO [Choline [M]+]
  LC retention time: 5.18 min

## CC1(C)CC1C(=O)NC(=CCCCCSCC(N)C(=O)O)C(=O)O (stereo unspecified) [Cilastatin]
  LC retention time: 7.63 min

## CN(C)CCCSc1ccccc1NC(=O)C=Cc1ccccc1 [Cinanserin]
  LC retention time: 2.61 min

## O=CC=Cc1ccccc1 [Cinnamaldehyde]
  LC retention time: 9.18 min

## COc1cc(N)c(Cl)cc1C(=O)NC1CCN(CCCOc2ccc(F)cc2)CC1OC (stereo unspecified) [Cisapride]
  LC retention time: 2.28 min

## NC(=O)NCCCC(N)C(=O)O (stereo unspecified) [Citrulline]
  LC retention time: 8.74 min

## Nc1nc(Cl)nc2c1ncn2C1CC(O)C(CO)O1 (stereo unspecified) [Cladribine]
  LC retention time: 1.95 min

## CCC1OC(=O)C(C)C(OC2CC(C)(OC)C(O)C(C)O2)C(C)C(OC2OC(C)CC(N(C)C)C2O)C(C)(OC)CC(C)C(=O)C(C)C(O)C1(C)O (stereo unspecified) [Clarithromycin]
  LC retention time: 3 min

## CN1C(=O)CC(=O)N(c2ccccc2)c2cc(Cl)ccc21 [Clobazam]
  LC retention time: 1.1 min

## NC(=NCc1ccc(Cl)cc1)SCCCc1cnc[nH]1 [Clobenpropit]
  LC retention time: 6.13 min

## CC(C)N=c1cc2n(-c3ccc(Cl)cc3)c3ccccc3nc-2cc1Nc1ccc(Cl)cc1 [Clofazimine]
  LC retention time: 1.78 min

## CN(C)CCCN1c2ccccc2CCc2ccc(Cl)cc21 [Clomipramine]
  LC retention time: 2.31 min

## Clc1cccc(Cl)c1NC1=NCCN1 [Clonidine]
  LC retention time: 2.85 min

## CCOC(=O)C1C(OC(=O)c2ccccc2)CC2CCC1N2C (stereo unspecified) [Cocaethylene]
  LC retention time: 2.12 min

## COC(=O)C1C(OC(=O)c2ccccc2)CC2CCC1N2C (stereo unspecified) [Cocaine]
  LC retention time: 2.2 min

## COc1cc(C=CC=O)ccc1O [Coniferylaldehyde]
  LC retention time: 1.14 min

## Nc1ncnc2c1ncn2C1OC(CO)CC1O (stereo unspecified) [Cordycepin]
  LC retention time: 3.54 min

## CC12CCC(=O)C=C1CCC1C2C(O)CC2(C)C(C(=O)CO)CCC12 (stereo unspecified) [Corticosterone]
  LC retention time: 1.25 min

## CC12CCC(=O)C=C1CCC1C2C(=O)CC2(C)C1CCC2(O)C(=O)CO (stereo unspecified) [Cortisone]
  LC retention time: 1.29 min

## CC12CCC(=O)C=C1CCC1C2CCC2(C)C1CCC2(O)C(=O)CO (stereo unspecified) [Cortodoxone]
  LC retention time: 1.15 min

## COc1cc2c(cc1OC)C1C(C)c3ccc(OC)c(OC)c3CN1CC2 (stereo unspecified) [Corydaline]
  LC retention time: 1.52 min

## CN1C(=O)CCC1c1cccnc1 (stereo unspecified) [Cotinine]
  LC retention time: 1.49 min

## O=c1ccc2ccccc2o1 [Coumarin]
  LC retention time: 1.08 min

## CN(CC(=O)O)C(=N)N [Creatine]
  LC retention time: 8.15 min

## CN1CC(=O)NC1=N [Creatinine]
  LC retention time: 4.93 min

## CC=CC(=O)N(CC)c1ccccc1C [Crotamiton]
  LC retention time: 0.97 min

## CC(C)CC1NC(=O)C2CCCN2C1=O (stereo unspecified) [Cyclo(Leu-Pro)]
  LC retention time: 1.29 min

## NC1CCCCC1 [Cyclohexanamine]
  LC retention time: 5.1 min

## CN1CCC(=C2c3ccccc3C=Cc3ccccc32)CC1 [Cyproheptadine]
  LC retention time: 2.31 min

## NC(CCSCC(N)C(=O)O)C(=O)O (stereo unspecified) [Cystathionine]
  LC retention time: 9.91 min

## NC(CS(=O)(=O)O)C(=O)O (stereo unspecified) [Cysteic acid]
  LC retention time: 8.92 min

## NC(CS)C(=O)O (stereo unspecified) [Cysteine]
  LC retention time: 5.31 min

## NC(CSSCC(N)C(=O)O)C(=O)O (stereo unspecified) [Cystine]
  LC retention time: 9.97 min
